Data published in patent US9556159B2, “Renin inhibitor” (MITSUBISHI TANABE PHARMA CORPORATION, priority 2012, dated 2017).

These molecules were tested against T1, Recombinant human renin (Homo sapiens, UniProt P00797) (assay: Inhibitory activity against human renin (fluorogenic peptide substrate)). Settings: 37° C. for 1 hour, read-out: IC50.
T1 sequence (P00797 67-406): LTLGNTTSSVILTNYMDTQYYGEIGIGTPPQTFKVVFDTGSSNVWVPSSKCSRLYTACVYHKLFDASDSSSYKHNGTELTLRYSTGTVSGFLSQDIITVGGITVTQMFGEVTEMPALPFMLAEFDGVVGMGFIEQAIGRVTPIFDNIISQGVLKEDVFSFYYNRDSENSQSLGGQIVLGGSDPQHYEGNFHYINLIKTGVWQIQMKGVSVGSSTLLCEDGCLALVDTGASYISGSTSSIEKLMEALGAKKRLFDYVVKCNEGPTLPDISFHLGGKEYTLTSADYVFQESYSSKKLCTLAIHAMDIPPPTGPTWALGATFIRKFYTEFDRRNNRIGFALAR
Assay type: biochemical
Procedure: Inhibitory Activity Against Human Renin
A substrate of synthetic peptide (Nma-KHPFH LVIHK(Dnp)-NH2) and test compound were mixed, and fluorescence intensity was assayed using a fluorophotometer before starting an enzymatic reaction (exciting wavelength: 340 nm, measuring wavelength: 460 nm). Recombinant human renin was added and the mixture was incubated at 37° C. for 1 hour, and the fluorescence intensity was measured after the reaction using a fluorophotometer (exciting wavelength: 340 nm, measuring wavelength: 460 nm).

In order of falling IC50:
1. COc1ccc([C@@H](C)N(C(=O)[C@H]2CNCCO2)C2CC2)cc1CCCNC(=O)C(F)(F)F [Example 67]  8.9 nM
2. COCCCCn1cc([C@H](C)N(C(=O)[C@H]2CNCCO2)C2CC2)c2nccc(OC)c21 [Example 51]  8.8 nM
3. COCCCCn1cc([C@@H](C)N(C(=O)[C@H]2CNCCO2)C2CC2)c2nccnc21 [Example 80]  5.7 nM
4. COCCCc1cn(C)c2ncc([C@@H](C)N(C(=O)[C@H]3CNCCO3)C3CC3)cc12 [Example 47]  4.8 nM
5. COC(=O)NCCCc1nc([C@@H](C)N(C(=O)[C@H]2CNCCO2)C2CC2)ccc1OC [Example 74]  4.6 nM
6. CCC(=O)NCCCc1cc([C@@H](C)N(C(=O)[C@H]2CNCCO2)C2CC2)ccc1OC [Example 68]  4.5 nM
7. COCCCCn1cc([C@@H](C)N(C(=O)[C@H]2CNCCO2)C2CC2)c2nc(C)ccc21 [Example 56]  4.2 nM
8. COC(=O)NCCCc1cccc([C@@H](C)N(C(=O)[C@H]2CNCCO2)C2CC2)c1 [Example 61]  4 nM
9. COCCCN1C(=O)C(C)(C)c2ccc([C@@H](C)N(C(=O)[C@H]3CNCCO3)C3CC3)cc21 [Example 45]  3.4 nM
10. COCCCn1nc(C)c2ccc([C@@H](C)N(C(=O)[C@H]3CNCCO3)C3CC3)nc21 [Example 44]  3 nM
11. COCCCn1cc(CCCNC(=O)OC)c2cnc([C@@H](C)N(C(=O)[C@H]3CNCCO3)C3CC3)cc21 [Example 83]  2.1 nM
12. COCCCCn1cc([C@@H](C)N(C(=O)[C@H]2CNCCO2)C2CC2)c2nccc(OC)c21 [Example 52]  1.8 nM
13. CCOC(=O)NCCCn1nc([C@@H](C)N(C(=O)[C@H]2CNCCO2)C2CC2)c2ccc(C)nc21 [Example 58]  1.6 nM
14. COCCCN1CC(C)(C)c2ccc([C@@H](C)N(C(=O)[C@H]3CNCCO3)C3CC3)cc21 [Example 46]  1.5 nM
15. COCCCc1cn(C)c2ccc([C@@H](C)N(C(=O)[C@H]3CNCCO3)C3CC3)cc12 [Example 48]  1.5 nM
16. COCCCn1cc(C(C)C)c2cnc([C@@H](C)N(C(=O)[C@H]3CNCCO3)C3CC3)nc21 [Example 73]  1.4 nM
17. COC(=O)NCCCn1nc([C@@H](C)N(C(=O)[C@H]2CNCCO2)C2CC2)c2ccc(CO)cc21 [Example 63]  1.3 nM
18. COC(=O)NCCCn1cc([C@H](C)N(C(=O)[C@H]2CNCCO2)C2CC2)c2ccc(C)nc21 [Example 50]  1 nM
19. COC(=O)NCCCn1nc([C@@H](C)N(C(=O)[C@H]2CNCCO2)C2CC2)c2ncc(C)cc21 [Example 70]  1 nM
20. COC(=O)NCCCn1nc([C@@H](C)N(C(=O)[C@H]2CNCCO2)C2CC2)c2ccc(C3CC3)cc21 [Example 59]  0.9 nM
21. COCCCCc1cc([C@@H](C)N(C(=O)[C@H]2CNCCO2)C2CC2)cc(OC)n1 [Example 78]  0.9 nM
22. CCc1ccnc2c([C@@H](C)N(C(=O)[C@H]3CNCCO3)C3CC3)cn(CCCCOC)c12 [Example 79]  0.9 nM
23. COC(=O)NCCCn1nc([C@@H](C)N(C(=O)[C@H]2CNCCO2)C2CC2)c2ccc(C(F)(F)F)nc21 [Example 72]  0.7 nM
24. COC(=O)NCCCn1cc([C@@H](C)N(C(=O)[C@H]2CNCCO2)C2CC2)c2ncccc21 [Example 43]  0.6 nM
25. COC(=O)NCCCn1nc([C@@H](C)N(C(=O)[C@H]2CNCCO2)C2CC2)c2cccc(C)c21 [Example 62]  0.6 nM
26. COC(=O)NCCCn1nc([C@@H](C)N(C(=O)[C@H]2CNCCO2)C2CC2)c2cccc(F)c21 [Example 76]  0.6 nM
27. COC(=O)NCCCn1cc([C@@H](C)N(C(=O)[C@H]2CNCCO2)C2CC2)c2nccc(C)c21 [Example 42]  0.5 nM
28. COC(=O)NCCCn1nc([C@@H](C)N(C(=O)[C@H]2CNCCO2)C2CC2)c2ccc(C3CC3)nc21 [Example 82]  0.5 nM
29. COCc1cccc2c([C@@H](C)N(C(=O)[C@H]3CNCCO3)C3CC3)nn(CCCNC(=O)OC)c12 [Example 81]  0.4 nM
30. COC(=O)NCCCn1cc([C@@H](C)N(C(=O)[C@H]2CNCCO2)C2CC2)c2cc(F)cnc21 [Example 75]  0.3 nM
